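Tested at 5 concentrations; 48 h exposure; 96-well plates; endpoints linearly interpolated, else capped at highest concentration. The concentration for full growth arrest is given as TGI.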
Key:
Assay in all cases: NCI-60 cell line screen, 48 h
[1] = system: UACC-62 melanoma
[2] = system: ACHN renal
[3] = system: SN12C renal
[4] = system: SNB-19 CNS
[5] = system: SF-539 CNS
[6] = system: NCI-H460 lung
[7] = system: 786-0 renal
[8] = system: TK-10 renal
[9] = system: OVCAR-3 ovarian

SMILES	TGI [1] [µM]	TGI [2] [µM]	TGI [3] [µM]	TGI [4] [µM]	TGI [5] [µM]	TGI [6] [µM]	TGI [7] [µM]	TGI [8] [µM]	TGI [9] [µM]
CN(C)CCNC(=O)c1c2ccccc2cc2ccccc12	53.4	> 100	> 100	> 100	> 100	> 100	> 100	> 100	> 100
Cc1cccc(C(C)C)c1NC(=O)CCl	63.2	> 100	> 100	> 100	> 100	> 100	> 100	–	59.9
CCOC(=O)C(=O)Nc1ccccc1OCC	> 100	> 100	> 100	> 100	> 100	> 100	> 100	> 100	> 100
CCOC(OCC)C(CC)[Se]c1ccccc1 (configuration not stated)	> 100	> 100	> 100	> 100	> 100	> 100	> 100	> 100	> 100
Nc1c(C(=O)NC23CC4CC(CC(C4)C2)C3)[n+]([O-])c2ccccc2[n+]1[O-]	> 100	> 100	> 100	> 100	> 100	> 100	> 100	> 100	> 100
O=S1c2ccccc2NC(c2ccc3ccccc3c2)CC1c1ccccc1 (configuration not stated)	> 100	52.2	> 100	> 100	41.1	47.1	31.1	> 100	35.1
CN1C(=O)CCC1c1ccc2c(c1)oc(=O)n2C (configuration not stated)	> 100	> 100	> 100	> 100	> 100	> 100	> 100	> 100	–
CNc1ccc([N+](=O)[O-])c2c(NCCCN(C)C)ccnc12	–	> 100	> 100	> 100	> 100	> 100	> 100	> 100	> 100
CCOc1ccc(NCC2CC/C(=C\c3ccc(Cl)cc3)C2=O)cc1 (configuration not stated)	> 64.3	> 60.3	> 60.3	> 100	> 57	> 100	25.8	> 65.6	> 51.9
COc1ccc(OC(C)C(=O)O)c2c1CCCC2=O (configuration not stated)	> 100	> 100	> 100	> 100	> 100	> 100	> 100	> 100	> 100
O=c1ccn(C2(CO)C=C(CO)C(O)C2O)c(=O)[nH]1 (configuration not stated)	> 25.7	> 25.7	> 25.7	> 25.7	> 25.7	> 25.7	> 25.7	> 25.7	> 25.7
COc1ccccc1NC(=O)C1=C(C)NC(C)=C(C(=O)Nc2ccccc2OC)C1c1cccc2ccccc12	> 100	> 100	> 100	> 100	> 100	> 100	> 100	> 100	> 100
OCC(O)COc1c(Cl)cc(Cl)cc1Cl (configuration not stated)	> 100	> 100	> 100	> 100	> 100	> 100	> 76.5	> 100	> 100
ClC1c2ccccc2C2(c3ccccc3)OOC1(c1ccccc1)O2 (configuration not stated)	3.66	2.89	2.9	3.21	5.01	3.13	2.98	4.4	3.3
CN(C(=O)C12C3C4C1C1C2C3C41C(O)C(C)(C)C)C(C)(C)C (configuration not stated)	> 100	> 100	> 100	> 100	> 100	> 100	> 100	> 100	> 100
NC(CCc1ncc(-c2ccccc2)s1)C(=O)O (configuration not stated)	> 100	> 100	> 100	> 100	> 100	> 100	> 100	> 100	> 100
O=C1CCCC(O)=C1SC1=C(O)CCCC1=O	> 100	–	> 100	> 100	> 100	–	> 100	> 100	> 100
CC(O)C(NC(=O)c1ccccc1)C(=O)N(Cc1ccccc1)Cc1ccccc1 (configuration not stated)	> 100	> 100	> 100	> 100	> 100	> 100	> 100	> 100	> 100
CCCC(=O)c1ccc(=O)n(C)c1	> 100	> 100	> 100	> 100	> 100	> 100	> 100	> 100	> 100
O=C1CCNC(=O)NC1	> 100	> 100	> 100	> 100	–	> 100	> 100	> 100	> 100
CC(C)CN1CC(C)C(=O)NC1=O (configuration not stated)	> 100	> 100	> 100	> 100	> 100	> 100	> 100	> 100	–

— PubChem BioAssay (NCI)
